{"source": "patent US7375222B2", "about": "“2,4,6-Triamino-1,3,5-triazine derivative” (Astellas Pharma Inc., priority 2002, dated 2008)", "key": {"ECS-induced amnesia": {"test_system": "ECS-induced amnesia", "assay": "Electroconvulsive shock (ECS)-induced amnesia, mouse passive avoidance task", "type": "in vivo", "experimental": "Electricity Chorea Shock (ECS)-Induced Learning Disorder (Mouse Passive Evasion Reaction Test) The evaluation was carried out in the following manner with reference to a report (Eur. J. Pharmacology, 321; 273-278, 1997). Animals; Male ddy mice (SLC, five weeks of age at the time of the training) were used. Arranged into 31 or 32 animals per group. A compound to be evaluated was suspended in a solution prepared by dissolving methyl cellulose in physiological saline to a concentration of 0.5% (hereinafter, 0.5% methyl cellulose solution). The administration volume was set to 10 ml per 1 kg body weight. As a placebo of the compound to be evaluated, 10 ml of the 0.5% methyl cellulose solution per 1 kg body weight (hereinafter, vehicle) was administered. (2) Each mouse was put into the light compartment of a passive avoidance task apparatus and allowed to stand for 30 seconds. Thereafter, the Guillotine door was opened. […] (3) A period of time until the mouse crossed a sensor in the dark compartment after opening the Guillotine door (step-through latency) was recorded. […] Effect of the compound on ECS-induced amnesia was evaluated by comparison between a step-through latency of (ECS+vehicle administration) group and a that of (ECS+evaluation compound administration) group. Data were analyzed using two-tailed steel test. […]"}, "BEC 1 potassium channel": {"target": "T1, BEC 1 potassium channel (Homo sapiens, UniProt Q9ULD8)", "T1 construct": "expressed in transfected cells", "T1 sequence (Q9ULD8 1-1083)": "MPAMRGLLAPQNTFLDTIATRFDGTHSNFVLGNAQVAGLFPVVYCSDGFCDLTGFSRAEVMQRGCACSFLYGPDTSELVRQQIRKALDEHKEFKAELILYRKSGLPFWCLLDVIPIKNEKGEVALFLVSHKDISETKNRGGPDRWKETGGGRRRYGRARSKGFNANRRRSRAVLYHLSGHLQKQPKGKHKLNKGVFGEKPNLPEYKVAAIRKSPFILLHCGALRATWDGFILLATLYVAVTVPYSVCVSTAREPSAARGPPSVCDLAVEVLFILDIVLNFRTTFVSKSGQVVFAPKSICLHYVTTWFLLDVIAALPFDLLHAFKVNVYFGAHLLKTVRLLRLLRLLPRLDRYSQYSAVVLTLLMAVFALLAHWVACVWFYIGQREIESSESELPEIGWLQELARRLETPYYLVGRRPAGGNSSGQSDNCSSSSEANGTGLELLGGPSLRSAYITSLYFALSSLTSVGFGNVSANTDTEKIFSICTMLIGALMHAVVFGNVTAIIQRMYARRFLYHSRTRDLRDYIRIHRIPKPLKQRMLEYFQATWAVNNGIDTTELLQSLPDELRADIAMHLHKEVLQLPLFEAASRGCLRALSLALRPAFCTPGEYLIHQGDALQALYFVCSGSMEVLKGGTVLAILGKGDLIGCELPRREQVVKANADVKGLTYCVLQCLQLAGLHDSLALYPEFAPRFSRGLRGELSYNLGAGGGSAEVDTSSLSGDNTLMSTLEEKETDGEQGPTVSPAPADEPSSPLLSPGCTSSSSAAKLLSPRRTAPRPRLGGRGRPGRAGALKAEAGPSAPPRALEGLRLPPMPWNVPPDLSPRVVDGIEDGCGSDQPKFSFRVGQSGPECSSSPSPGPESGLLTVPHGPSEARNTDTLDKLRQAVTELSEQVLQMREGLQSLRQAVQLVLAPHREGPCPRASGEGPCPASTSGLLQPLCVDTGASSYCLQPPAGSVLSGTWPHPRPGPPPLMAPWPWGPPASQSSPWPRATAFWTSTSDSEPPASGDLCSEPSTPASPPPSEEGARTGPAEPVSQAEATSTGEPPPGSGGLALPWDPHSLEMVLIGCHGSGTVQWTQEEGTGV", "assay": "BEC 1 inhibitory activity using released amount of 86Rb ions from BEC 1-expressing cells", "type": "cell-based", "settings": "86Rb ion release, BEC 1-stably expressing CHO (dhfr-deficient) cell, 100 mM KCl stimulation; read-out: BEC1 IC50", "experimental": "In general, the potassium channel can pass Rb^+ ion similar to K^+ ion, so that the channel activity can be measured using release of a radioisotope ^86Rb^+ as a marker. By incubating cells expressing the novel potassium channel protein together with ^86RbCl (e.g., 18 hr, 37° C.), ^86Rb^+ can be incorporated into the cells. The cells are washed with a low K^+ concentration physiological saline (e.g., 4.5 mM K^+) and then suspended in the same solution. When a high K^+ concentration solution (e.g., 100 mM in final concentration) is added to the cell suspension, membrane potential of the cell is depolarized and the potassium channel therefore is activated. As a result, the intracellular ^86Rb^+ is released into the extracellular part, thus radioactivity of the extracellular solution can be used as a marker of the channel activity. It is possible to screen a compound and a peptide capable of modifying activity of the BEC 1 potassium channel protein, by comparing the radioactivity released into the extracellular part when the high K^+ concentration solution is added in the presence and absence of each drug to be tested.\nMethod for Measuring BEC 1 Inhibitory Activity of Compounds Using Released Amount of ^86Rb ions as the Index\nThe channel activity of BEC 1 was measured in accordance with the method described in WO 99/37677, using amount of a radioisotope ^86Rb ion released from a BEC 1-expressing cell as the index. That is, when an ^86Rb ion-incorporated BEC 1-expressing cell was stimulated with 100 mM KCl, the radioactivity released from the cell was used as the channel activity of BEC 1. The ^86Rb ions were incorporated into a BEC 1-stably expressing cell by culturing the cell (3 hours, 37° C.) in the presence of ^86RbCl (0.5 μCi/ml), and the un-incorporated ^86Rb ions were removed by washing three times with HEPES-buffered saline (pH 7.4, 2.5 mM KCl). The cells were incubated with HEPES-buffered saline containing a compound to be tested at room temperature for 15 minutes and then further incubated with 100 mM KCl-containing HEPES-buffered saline (pH 7.4) containing the compound to be tested at room temperature for 5 minutes. The extracellular medium was recovered, and then the remaining cells were lysed with 0.1 N NaOH and recovered.\nThe Cerenkov radioactivity of the extracellular medium and cell lysate was respectively measured, and their total was used as the total radioactivity. The released amount of ^86Rb ions was expressed by the percentage of extracellular medium radioactivity based on the total radioactivity. The value obtained in the presence of the compound was used as a test value, and the value obtained in the absence of the compound as a control value and the value obtained when not stimulated with 100 mM KCl as a blank value. Inhibitory action of each compound was expressed by % inhibition, namely (control value−test value)×100/(control value−blank value), or by an IC50 value calculated from the % inhibition. As the test results of typical compounds are shown in the following Tables 2 and 3, it was confirmed that said compounds have the BEC 1 potassium channel inhibitory action.\nIn this connection, as the BEC 1-expressing cell, a BEC 1-stably expressing cell prepared in accordance with the method described in WO 99/37677 using a dihydrofolate reductase (dhfr)-deficient strain of a Chinese hamster ovary cell was used."}}, "data": [{"smiles": "Fc1ccc(Nc2nc(NCc3ccnc(F)c3)nc(Nc3ccccc3)n2)cc1", "note": "[Example 744]", "values": [{"measurement": "minimum effective dose (step-through latency)", "setting": "ECS-induced amnesia; intraperitoneally administered, male ddy mice, test 24 hours after training", "result": 3, "unit": "mg/kg"}, {"measurement": "effect on ECS-induced amnesia", "setting": "ECS-induced amnesia; mouse passive avoidance task", "result": "shows the improving effect"}, {"measurement": "IC50", "setting": "BEC 1 potassium channel", "result": 85, "unit": "nM"}]}]}
